# In patent US20260184697A1, “EZH1/2 INHIBITOR, PREPARATION THEREOF, AND USE THEREOF IN ANTI-TUMOR THERAPY” (JIANGSU TASLY DIYI PHARMACEUTICAL CO., LTD., priority 2022, published 2026):
# pIC50: −log10 of the molar value.
# Biological target: T1, EZH2/SUZ/EED (Homo sapiens, UniProt O75530+Q15022+Q15910)
# T1 construct: purchased BPS 51003
# Assay: Inhibitory effect on EZH2 by the MTase-Glo method (Test Example 1)
# Assay type: biochemical
# Conditions: EZH2/SUZ/EED 6.25 nM, H3 peptide 10 μM, SAM 3 μM, 30° C. 3 h, read-out: Test Example 1 WT EZH2 IC50
# Summary of the method: (§1)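 EZH2/SUZ/EED (6.25 nM) or EZH1/SUZ/EED (25 nM) pre-incubated 15 min with compound in pH 7.6 Bicine buffer, 0.5% DMSO. Biotinylated H3(21-44) peptide 10 μM plus SAM 3 μM reacted 3 h at 30 °C; MTase-Glo luminescence normalized to controls, IC50 from variable-slope fit.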
# T1 sequence (Q15910 2-746 limits assumed): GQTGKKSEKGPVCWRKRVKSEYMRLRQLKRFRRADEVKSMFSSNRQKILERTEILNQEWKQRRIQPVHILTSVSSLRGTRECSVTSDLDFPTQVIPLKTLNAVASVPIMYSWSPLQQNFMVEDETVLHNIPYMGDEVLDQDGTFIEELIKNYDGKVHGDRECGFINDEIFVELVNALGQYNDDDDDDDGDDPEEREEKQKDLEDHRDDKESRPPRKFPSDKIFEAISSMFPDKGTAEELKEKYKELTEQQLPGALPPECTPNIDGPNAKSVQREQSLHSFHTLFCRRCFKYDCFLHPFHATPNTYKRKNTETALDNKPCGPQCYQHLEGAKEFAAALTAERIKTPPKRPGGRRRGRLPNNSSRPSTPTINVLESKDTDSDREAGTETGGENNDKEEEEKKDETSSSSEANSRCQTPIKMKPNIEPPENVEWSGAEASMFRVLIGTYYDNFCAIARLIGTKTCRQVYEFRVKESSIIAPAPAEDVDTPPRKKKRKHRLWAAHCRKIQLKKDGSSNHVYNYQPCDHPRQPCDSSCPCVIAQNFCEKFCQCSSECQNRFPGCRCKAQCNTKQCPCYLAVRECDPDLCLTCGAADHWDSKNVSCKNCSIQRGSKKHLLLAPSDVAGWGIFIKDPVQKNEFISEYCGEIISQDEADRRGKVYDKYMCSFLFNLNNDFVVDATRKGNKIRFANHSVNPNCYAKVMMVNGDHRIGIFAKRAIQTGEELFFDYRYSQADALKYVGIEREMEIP
# T1 sequence (Q15022 2-739 partner limits assumed): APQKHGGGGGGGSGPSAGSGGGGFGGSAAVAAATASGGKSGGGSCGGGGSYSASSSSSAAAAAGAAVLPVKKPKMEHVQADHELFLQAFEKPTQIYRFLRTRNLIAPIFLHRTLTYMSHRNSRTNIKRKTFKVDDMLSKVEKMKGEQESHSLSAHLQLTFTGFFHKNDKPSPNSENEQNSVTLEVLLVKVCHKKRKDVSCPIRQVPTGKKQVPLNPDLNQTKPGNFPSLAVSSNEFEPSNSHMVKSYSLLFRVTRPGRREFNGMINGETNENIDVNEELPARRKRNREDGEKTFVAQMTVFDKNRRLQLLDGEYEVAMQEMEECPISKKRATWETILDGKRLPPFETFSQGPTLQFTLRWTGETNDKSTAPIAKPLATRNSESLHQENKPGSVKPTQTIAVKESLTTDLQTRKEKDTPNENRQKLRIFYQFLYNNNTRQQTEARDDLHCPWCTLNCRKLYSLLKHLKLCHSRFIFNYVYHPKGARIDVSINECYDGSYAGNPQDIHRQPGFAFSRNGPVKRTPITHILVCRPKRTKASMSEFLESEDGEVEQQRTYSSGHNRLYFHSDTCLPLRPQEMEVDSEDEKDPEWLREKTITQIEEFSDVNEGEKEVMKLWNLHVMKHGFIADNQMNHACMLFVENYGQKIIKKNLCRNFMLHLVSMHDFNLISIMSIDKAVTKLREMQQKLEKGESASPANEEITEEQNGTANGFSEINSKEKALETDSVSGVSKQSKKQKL
# T1 sequence (O75530 2-441 partner limits assumed): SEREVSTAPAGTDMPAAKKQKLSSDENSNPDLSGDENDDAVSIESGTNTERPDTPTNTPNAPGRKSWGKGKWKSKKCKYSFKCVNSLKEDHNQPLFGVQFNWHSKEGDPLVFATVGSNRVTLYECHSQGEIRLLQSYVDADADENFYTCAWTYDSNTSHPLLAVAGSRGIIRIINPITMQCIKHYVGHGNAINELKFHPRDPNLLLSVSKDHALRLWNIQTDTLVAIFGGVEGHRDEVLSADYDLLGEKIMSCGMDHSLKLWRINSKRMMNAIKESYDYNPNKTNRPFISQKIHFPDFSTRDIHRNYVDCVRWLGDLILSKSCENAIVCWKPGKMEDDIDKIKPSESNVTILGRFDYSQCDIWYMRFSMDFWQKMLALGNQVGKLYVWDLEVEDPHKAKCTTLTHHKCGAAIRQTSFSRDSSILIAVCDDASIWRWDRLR
row,pIC50,Compound
1,8.06,"COC1CN(C2CCC(C3COc4c(Cl)cc(C(=O)NCc5c(C)cc(C)[nH]c5=O)c(C)c4O3)CC2)C1 (single isomer, unassigned) [Compound 61]"
2,8.41,Cc1cc(C)c(CNC(=O)c2cc(Cl)c3c(c2C)OC(C2CCC(N(C)C)CC2)CO3)c(=O)[nH]1 (stereo not shown) [Compound 2]
3,8.48,CSc1cc(C)[nH]c(=O)c1CNC(=O)c1cc(Cl)c2c(c1C)OC(C1CCC(N(C)C)CC1)CO2 (stereo not shown) [Compound 3]
4,8.15,CSc1cc(C)[nH]c(=O)c1CNC(=O)c1cc(C#N)c2c(c1C)O[C@@H]([C@H]1CC[C@@H](N3CC(OC(F)F)C3)CC1)CO2 [Compound 163]
5,8.51,Cc1cc(Cl)c(CNC(=O)c2cc(Cl)c3c(c2C)O[C@@H]([C@H]2CC[C@H](N(C)C)CC2)CO3)c(=O)[nH]1 [Compound 174]

row,Compound,pIC50
1,Cc1cc(C)c(CNC(=O)c2cc(Cl)c3c(c2C)CC(C)(C2CCC(N(C)C)CC2)O3)c(=O)[nH]1 (stereo not shown) [Compound 181],7.52

# System: Karpas-422 cells
# Assay: Anti-proliferation by Cell Titer-Glo method (Test Example 3)
# Assay type: cell-based
# Conditions: Homo sapiens, KARPAS-422, read-out: Test Example 3 Karpas-422 cell anti-proliferation IC50(nM)
# Procedure: Karpas-422 (Nanjing Kebai, CBP60629) cells were seeded in a 96-well plate (Corning, 3894) at 1,000 cells per well in growth medium (80% 1640 (Hyclone, SH30809.01)+20% FBS (Corning, 35-081-CV)), in a total of 100 μL, and then was added with 25 μL of 5-fold different concentrations of compounds diluted in growth medium. The cell growth group without compound addition was used as a positive control (maximum signal control), and the medium was used as a negative control (minimum signal control), while ensuring that the final contration of DMSO in each reaction well was 0.2%. Then the 96-well cell plate was placed in a cell culture incubator (37° C., 5% CO2) and incubated for 3 days. On the fourth day, the cell culture plate was taken out of the incubator, using a row gun to gently blow the cells up and down to mix, removing 62.5 μL of the cell suspension, adding 50 μL of growth medium and 12.5 μL of compounds of 5 times different concentrations, and then putting them in the cell incubator to incubate for 4 days. On the eighth day, the same method was used as the fourth day to treat the cells, then incubating in the cell culture incubator for 3 days. On the eleventh day, the Cell-Titer Glo (Promega, G7573) was used to detect cell viability, and a microplate reader was used to detect the signal value of luminescence.
# The inhibition rate of different concentrations of compounds on cells was calculated as inhibition rate=[1−(compound signal value−negative control signal value)/(positive control signal value-negative control signal value)][…]. The IC50 of the compound on cell activity inhibition was calculated by GraphPad Prism 6 with log(inhibitor) vs. response-Variable slope model fitting. The fitting equation is: Y=Bottom+(Top−Bottom)/(1+10^((Log IC50−X)*Hill Slope)), wherein Y represents the inhibition rate, and X represents the known concentration of the compound after Log.
row,Compound,IC50 [nM]
1,Cc1c(C(=O)NCC2COC2)cc(Cl)c2c1O[C@@H]([C@H]1CC[C@@H](N(C)C)CC1)CO2 [Compound 167],> 1000
2,Cc1c(C(=O)NCC2COC2)cc(Cl)c2c1O[C@@H]([C@H]1CC[C@H](N(C)C)CC1)CO2 [Compound 168],> 1000

# Same assay, conditions: Homo sapiens; Karpas-422 cells, Cell-Titer Glo on the eleventh day; read-out: Test Example 3 Karpas-422 cell anti-proliferation IC50
row,Compound,pIC50
1,"COC1CN(C2CCC(C3COc4c(Cl)cc(C(=O)NCc5c(C)cc(C)[nH]c5=O)c(C)c4O3)CC2)C1 (single isomer, unassigned) [Compound 61]",7.03
2,Cc1cc(C)c(CNC(=O)c2cc(Cl)c3c(c2C)OC(C2CCC(N(C)C)CC2)CO3)c(=O)[nH]1 (stereo not shown) [Compound 2],7.37
3,CSc1cc(C)[nH]c(=O)c1CNC(=O)c1cc(Cl)c2c(c1C)OC(C1CCC(N(C)C)CC1)CO2 (stereo not shown) [Compound 3],8.12
4,CSc1cc(C)[nH]c(=O)c1CNC(=O)c1cc(Cl)c2c(c1C)O[C@@H]([C@H]1CC[C@@H](N3CC(CF)C3)CC1)CO2 [Compound 34],8.24
5,COc1cc(C)[nH]c(=O)c1CNC(=O)c1cc(Cl)c2c(c1C)O[C@@H]([C@H]1CC[C@@H](N3CC[C@H](OC)C3)CC1)CO2 [Compound 119],7.89
6,COc1cc(C)[nH]c(=O)c1CNC(=O)c1cc(Cl)c2c(c1C)O[C@@H]([C@H]1CC[C@H](N3CC[C@H](OC)C3)CC1)CO2 [Compound 120],7.50
7,COc1cc(C)[nH]c(=O)c1CNC(=O)c1cc(Cl)c2c(c1C)O[C@@H]([C@H]1CC[C@@H](N3CC[C@@H](OC)C3)CC1)CO2 [Compound 121],7.45
8,COc1cc(C)[nH]c(=O)c1CNC(=O)c1cc(Cl)c2c(c1C)O[C@@H]([C@H]1CC[C@H](N3CC[C@@H](OC)C3)CC1)CO2 [Compound 122],6.33
9,CSc1cc(C)[nH]c(=O)c1CNC(=O)c1cc(C#N)c2c(c1C)O[C@@H]([C@H]1CC[C@@H](N3CC(OC(F)F)C3)CC1)CO2 [Compound 163],8.77
10,C#Cc1cc(C(=O)NCc2c(SC)cc(C)[nH]c2=O)c(C)c2c1OC[C@H]([C@H]1CC[C@@H](N3CC(OC)C3)CC1)O2 [Compound 165],8.92
11,COC1CN([C@H]2CC[C@H]([C@H]3COc4c(F)cc(C(=O)NCc5c(SC)cc(C)[nH]c5=O)c(C)c4O3)CC2)C1 [Compound 170],7.33

# The next lines start with the values.
row,pIC50,Compound
1,< 6.00,COC1CN([C@H]2CC[C@H]([C@@H]3COc4c(F)cc(C(=O)NCc5c(SC)cc(C)[nH]c5=O)c(C)c4O3)CC2)C1 [Compound 171]
2,6.43,COC1CN([C@H]2CC[C@@H]([C@@H]3COc4c(F)cc(C(=O)NCc5c(SC)cc(C)[nH]c5=O)c(C)c4O3)CC2)C1 [Compound 172]
3,6.91,Cc1cc(Cl)c(CNC(=O)c2cc(Cl)c3c(c2C)O[C@@H]([C@H]2CC[C@@H](N(C)C)CC2)CO3)c(=O)[nH]1 [Compound 173]
4,8.25,Cc1cc(Cl)c(CNC(=O)c2cc(Cl)c3c(c2C)O[C@@H]([C@H]2CC[C@H](N(C)C)CC2)CO3)c(=O)[nH]1 [Compound 174]
5,6.71,COC1CN([C@H]2CC[C@H]([C@H]3COc4c(Cl)cc(C(=O)NCc5c(Cl)cc(C)[nH]c5=O)c(C)c4O3)CC2)C1 [Compound 176]
6,7.44,COc1cc(C)[nH]c(=O)c1CNC(=O)c1cc(Cl)c2c(c1C)O[C@@H]([C@H]1CC[C@@H](OCCF)CC1)CO2 [Compound 179]
7,7.97,COc1cc(C)[nH]c(=O)c1CNC(=O)c1cc(Cl)c2c(c1C)O[C@@H]([C@H]1CC[C@H](OCCF)CC1)CO2 [Compound 180]

# System: H3K27Me3 methylation in Karpas-422 cells
# Assay: H3K27Me3 cell method, inhibition of H3K27Me3 methylation (Test Example 2)
# Assay type: cell-based, human
# Conditions: Homo sapiens, KARPAS-422, 72 h, Karpas-422 cells, 3 days incubation, HTRF signal; read-out: Test Example 2 H3K27Me3 inhibition (Karpas-422) IC50
# Procedure: Karpas-422 (Nanjing Kebai, CBP60629) cells were seeded in a 96-well plate (Corning, 3894) at 15,000 cells per well in culture medium (80% 1640 (Hyclone, SH30809.01)+20% FBS (Corning, 35-081-CV)), and then added with different concentrations of compounds for treatment. The cell growth group without adding compounds is used as a positive control (maximum signal control), and the medium is used as a negative control (minimum signal control), while ensuring that in each reaction well, the final concentration of DMSO was 0.2%. Compounds and cells were incubated for 3 days in a cell culture incubator (37° C., 5% CO2). The 96-well plate was taken out from the cell culture incubator and equilibrated to room temperature, and 25 ul of cell suspension was taken out into a 384-well plate. The CCK8 (Beiyuntian, C0040) detection reagent was added, incubated at 37° C. for 1 h, and […] was detected. The rest of the cells followed the procedure of the kit EPIgeneous H3K27Me3 cellular kit (Cisbio, 62KC3PAE) to carry out experiment, read HTRF signal with BMG PHERAStar. […] By GraphPad Prism 6 with log(inhibitor)vs.response-Variable slope model simulation, the IC50 of the compound on cell activity inhibition was calculated. The fitting equation is: Y=Bottom+(Top−Bottom)/(1+10^((Log IC50−X)*HillSlope)), wherein Y represents the inhibition rate, and X represents the known concentration of the compound after Log.
row,pIC50,Compound
1,7.51,Cc1cc(C)c(CNC(=O)c2cc(Cl)c3c(c2C)OC(C2CCC(N(C)C)CC2)CO3)c(=O)[nH]1 (stereo not shown) [Compound 2]
2,8.68,CSc1cc(C)[nH]c(=O)c1CNC(=O)c1cc(Cl)c2c(c1C)OC(C1CCC(N(C)C)CC1)CO2 (stereo not shown) [Compound 3]
3,8.21,CSc1cc(C)[nH]c(=O)c1CNC(=O)c1cc(Cl)c2c(c1C)O[C@@H]([C@H]1CC[C@@H](N3CC(CF)C3)CC1)CO2 [Compound 34]
4,7.03,COc1cc(C)[nH]c(=O)c1CNC(=O)c1cc(Cl)c2c(c1C)O[C@@H]([C@H]1CC[C@@H](N3CC[C@@H](OC)C3)CC1)CO2 [Compound 121]
5,8.72,CSc1cc(C)[nH]c(=O)c1CNC(=O)c1cc(C#N)c2c(c1C)O[C@@H]([C@H]1CC[C@@H](N3CC(OC(F)F)C3)CC1)CO2 [Compound 163]
6,8.85,C#Cc1cc(C(=O)NCc2c(SC)cc(C)[nH]c2=O)c(C)c2c1OC[C@H]([C@H]1CC[C@@H](N3CC(OC)C3)CC1)O2 [Compound 165]
7,< 6.00,COC1CN([C@H]2CC[C@H]([C@@H]3COc4c(F)cc(C(=O)NCc5c(SC)cc(C)[nH]c5=O)c(C)c4O3)CC2)C1 [Compound 171]

# Same assay, conditions: Homo sapiens, KARPAS-422, 72 h, read-out: Test Example 2 H3K27Me3 inhibition (Karpas-422) IC50(nM)
row,Compound,IC50 [nM]
1,Cc1cc(C)c(CNC(=O)c2cc(Cl)c3c(c2C)CC(C)(C2CCC(N(C)C)CC2)O3)c(=O)[nH]1 (stereo not shown) [Compound 181],410

# Same assay, conditions: Karpas-422 cells, 3 days incubation, HTRF signal; read-out: Test Example 2 H3K27Me3 inhibition (Karpas-422) IC50
row,pIC50,Compound
1,7.13,"COC1CN(C2CCC(C3COc4c(Cl)cc(C(=O)NCc5c(C)cc(C)[nH]c5=O)c(C)c4O3)CC2)C1 (single isomer, unassigned) [Compound 61]"

# Biological target: T2, EZH1/SUZ/EED (Homo sapiens, UniProt O75530+Q15022+Q92800)
# T2 construct: purchased BPS 51006
# Assay: Inhibitory effect on EZH1 by the MTase-Glo method (Test Example 1)
# Assay type: biochemical
# Conditions: EZH1/SUZ/EED 25 nM, H3 peptide 10 μM, SAM 3 μM, 30° C. 3 h, read-out: Test Example 1 WT EZH1 IC50
# Summary of the method: as §1
# T2 sequence (Q92800 2-747 limits assumed): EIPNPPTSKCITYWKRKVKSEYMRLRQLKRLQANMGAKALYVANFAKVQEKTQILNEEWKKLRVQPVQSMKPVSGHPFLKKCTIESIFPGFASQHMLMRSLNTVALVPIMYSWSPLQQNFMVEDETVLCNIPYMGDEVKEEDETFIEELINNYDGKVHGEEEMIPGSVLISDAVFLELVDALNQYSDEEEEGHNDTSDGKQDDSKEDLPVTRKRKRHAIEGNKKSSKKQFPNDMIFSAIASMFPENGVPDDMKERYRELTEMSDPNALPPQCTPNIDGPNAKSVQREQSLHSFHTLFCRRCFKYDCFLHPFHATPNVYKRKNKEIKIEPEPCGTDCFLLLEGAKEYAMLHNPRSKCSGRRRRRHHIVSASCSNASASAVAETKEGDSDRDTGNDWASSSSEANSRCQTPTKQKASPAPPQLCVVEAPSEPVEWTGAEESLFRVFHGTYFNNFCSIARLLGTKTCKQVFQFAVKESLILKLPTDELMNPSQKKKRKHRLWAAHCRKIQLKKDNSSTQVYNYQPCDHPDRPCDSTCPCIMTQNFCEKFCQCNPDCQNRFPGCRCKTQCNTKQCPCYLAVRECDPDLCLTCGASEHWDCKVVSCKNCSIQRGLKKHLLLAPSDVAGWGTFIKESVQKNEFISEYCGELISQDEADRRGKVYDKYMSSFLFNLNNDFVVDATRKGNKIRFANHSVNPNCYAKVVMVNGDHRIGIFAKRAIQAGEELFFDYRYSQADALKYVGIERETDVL
# T2 sequence (Q15022 2-739 partner limits assumed): as the sequence (Q15022 2-739 partner limits assumed) above
# T2 sequence (O75530 2-441 partner limits assumed): as the sequence (O75530 2-441 partner limits assumed) above
row,pIC50,Compound
1,6.79,"COC1CN(C2CCC(C3COc4c(Cl)cc(C(=O)NCc5c(C)cc(C)[nH]c5=O)c(C)c4O3)CC2)C1 (single isomer, unassigned) [Compound 61]"
2,7.05,Cc1cc(C)c(CNC(=O)c2cc(Cl)c3c(c2C)OC(C2CCC(N(C)C)CC2)CO3)c(=O)[nH]1 (stereo not shown) [Compound 2]
3,8.36,CSc1cc(C)[nH]c(=O)c1CNC(=O)c1cc(Cl)c2c(c1C)OC(C1CCC(N(C)C)CC1)CO2 (stereo not shown) [Compound 3]
4,8.14,Cc1cc(Cl)c(CNC(=O)c2cc(Cl)c3c(c2C)O[C@@H]([C@H]2CC[C@H](N(C)C)CC2)CO3)c(=O)[nH]1 [Compound 174]

row,Compound,pIC50
1,Cc1cc(C)c(CNC(=O)c2cc(Cl)c3c(c2C)CC(C)(C2CCC(N(C)C)CC2)O3)c(=O)[nH]1 (stereo not shown) [Compound 181],5.87
